The results in this text go back to PubChem BioAssay (NCI).

Some test systems named below: PC-3 prostate; HOP-92 NSCLC; SNB-75 CNS; OVCAR-4 ovarian; MCF7 breast; EKVX NSCLC; SF-295 CNS; BT-549 breast; MALME-3M melanoma; 786-0 renal.
Common to all, as to experiment: growth of human tumour cells (NCI), 48 h

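Growth conditions: 96-well plates. Treatment: test compound, 48 hours, 5 concentrations. Analysis: linear interpolation between bracketing concentrations; unreached endpoints set to highest concentration. Abbreviation: GI50, concentration required for 50% inhibition of growth. TGI marks complete inhibition of growth.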

With `c1cncc(CNCc2cccnc2)c1`, the TGI with PC-3 prostate, with HOP-92 NSCLC, in the experiment with SNB-75 CNS, in the experiment with OVCAR-4 ovarian, in the experiment on MCF7 breast and in the experiment with EKVX NSCLC was above 100 µM each time. Also, the TGI in the experiment on SF-295 CNS, with BT-549 breast, in the experiment with MALME-3M melanoma and in the experiment on 786-0 renal was above 100 µM throughout.

Turning to `CC1=Cc2ccc(C)cc2C(=O)C1=O`, the TGI in the experiment with PC-3 prostate worked out at 43 µM; in the experiment with HOP-92 NSCLC, 17.6 µM; in the experiment with SNB-75 CNS, 21.8 µM; in the experiment on OVCAR-4 ovarian, 32 µM; with MCF7 breast it was 54.5 µM; in the experiment on EKVX NSCLC it was 42.3 µM. For the same compound, the values for the TGI in the experiment with SF-295 CNS, with BT-549 breast and in the experiment with 786-0 renal were 34.7 µM, 49.1 µM and 3.81 µM, respectively.

As to `CN(C)CCSS(=O)(=O)O`, the TGI in the experiment on PC-3 prostate, in the experiment on HOP-92 NSCLC, in the experiment on SNB-75 CNS, with OVCAR-4 ovarian, in the experiment with MCF7 breast and in the experiment on EKVX NSCLC was above 100 µM throughout. In addition, the TGI in the experiment on SF-295 CNS is 94.4 µM; in the experiment on BT-549 breast it was above 100 µM; in the experiment on MALME-3M melanoma, above 100 µM; in the experiment with 786-0 renal, above 100 µM.

In the case of `C=CC(=O)Nc1cc(N2CCN(CC)CC2)ccc1Nc1cc(N(C)C(=O)Nc2c(Cl)c(OC)cc(OC)c2Cl)ncn1`, the GI50 was 5.05 µM in the experiment with PC-3 prostate; 4.94 µM in the experiment with HOP-92 NSCLC; 2.48 µM in the experiment with SNB-75 CNS; 5.35 µM with OVCAR-4 ovarian; 2.7 µM in the experiment on MCF7 breast; 12.4 µM with EKVX NSCLC. Further, the GI50 in the experiment on SF-295 CNS was 16.7 µM; in the experiment on BT-549 breast, 3.07 µM; with MALME-3M melanoma, 5.06 µM; in the experiment on 786-0 renal, 2.97 µM. The TGI in the experiment on PC-3 prostate is 20.8 µM; in the experiment with HOP-92 NSCLC it was 21.7 µM; with SNB-75 CNS, 14.2 µM; in the experiment on OVCAR-4 ovarian, 22.9 µM; with MCF7 breast, 19.2 µM; with EKVX NSCLC, 35.9 µM. Besides, the TGI came to 31.8 µM with SF-295 CNS, 15.1 µM in the experiment with BT-549 breast, 19.3 µM in the experiment with MALME-3M melanoma and 12.1 µM in the experiment on 786-0 renal.

For the compound `S=c1nc(N/N=C/c2ccco2)c2cn[nH]c2[nH]1`, the GI50 in the experiment with PC-3 prostate is 57.5 µM; in the experiment on HOP-92 NSCLC it was 71.4 µM; in the experiment with SNB-75 CNS, above 100 µM; in the experiment on OVCAR-4 ovarian it was above 100 µM; in the experiment with MCF7 breast, 3.6 µM; in the experiment with EKVX NSCLC, 51 µM. The GI50 with SF-295 CNS was above 100 µM; with BT-549 breast, 75.2 µM; in the experiment with MALME-3M melanoma, above 100 µM; in the experiment with 786-0 renal, above 100 µM. Besides, the TGI in the experiment on PC-3 prostate, with HOP-92 NSCLC, in the experiment on SNB-75 CNS, with OVCAR-4 ovarian, with MCF7 breast and in the experiment with EKVX NSCLC was above 100 µM each time. Besides, the TGI in the experiment on SF-295 CNS, in the experiment with BT-549 breast, with MALME-3M melanoma and in the experiment with 786-0 renal was above 100 µM in each case.

`COC(=O)C1=C(C(=O)OC)C2(C)C=CC1O2` (configuration not stated): the TGI was 37.6 µM in the experiment on PC-3 prostate; 24.4 µM in the experiment on HOP-92 NSCLC; 66.2 µM with SNB-75 CNS; 27.2 µM with OVCAR-4 ovarian; above 100 µM in the experiment with MCF7 breast; 41.3 µM in the experiment on EKVX NSCLC. In addition, the TGI with BT-549 breast turned out to be 46 µM; in the experiment on MALME-3M melanoma it was 9.26 µM; with 786-0 renal it was 14.4 µM.

`COc1cc(C)c(C2NC(=O)c3ccccc3N2)cc1C` (configuration not stated): the TGI with PC-3 prostate was 15.6 µM; in the experiment on HOP-92 NSCLC, above 86.5 µM; in the experiment with SNB-75 CNS it was 0.496 µM; in the experiment on OVCAR-4 ovarian it was above 82.9 µM; with MCF7 breast, above 89 µM; in the experiment on EKVX NSCLC, above 100 µM. Further, the TGI in the experiment on SF-295 CNS was 22.4 µM; with BT-549 breast it was 71.4 µM; in the experiment with MALME-3M melanoma, above 100 µM; in the experiment with 786-0 renal it was above 100 µM.

For the compound `O=C([O][Sn]([O]C(=O)c1ccccn1)([c]1ccccc1)[c]1ccccc1)c1ccccn1`, the GI50 is 11.8 µM in the experiment with PC-3 prostate; 2.54 µM in the experiment on SNB-75 CNS; 7.53 µM with OVCAR-4 ovarian; 2.67 µM in the experiment with MCF7 breast; 13.7 µM with EKVX NSCLC; 16.1 µM in the experiment with SF-295 CNS. In addition, the values for the GI50 in the experiment with BT-549 breast, in the experiment with MALME-3M melanoma and with 786-0 renal were 8.25 µM, 1.61 µM and 5.14 µM, respectively. The TGI in the experiment with PC-3 prostate was determined as 25.6 µM; in the experiment on SNB-75 CNS, 13 µM; with OVCAR-4 ovarian, 20.3 µM; with MCF7 breast, 13.4 µM; in the experiment on EKVX NSCLC it was 26.9 µM; with SF-295 CNS it was 31.9 µM. Further, the TGI was found to be 20.7 µM in the experiment on BT-549 breast, 3.49 µM in the experiment with MALME-3M melanoma and 16.8 µM with 786-0 renal.

Consider `O=c1cc(N/N=C/c2ccc(F)cc2)c2cc(Cl)ccc2[nH]1`, for which the GI50 was 8.41 µM with PC-3 prostate; 14 µM with HOP-92 NSCLC; 12.7 µM in the experiment on SNB-75 CNS; 15.3 µM with MCF7 breast; 16.8 µM with EKVX NSCLC; 21.9 µM in the experiment on SF-295 CNS. Further, the GI50 in the experiment with BT-549 breast was 15.8 µM; in the experiment on MALME-3M melanoma, 14.2 µM; in the experiment on 786-0 renal it was 26.3 µM. Besides, the TGI in the experiment on PC-3 prostate is 96.3 µM; in the experiment with HOP-92 NSCLC, 45.9 µM; in the experiment with SNB-75 CNS, 83.1 µM; with MCF7 breast it was above 100 µM; in the experiment with EKVX NSCLC it was above 100 µM; in the experiment with SF-295 CNS it was above 100 µM. For the same compound, the TGI in the experiment with BT-549 breast was 44.5 µM; in the experiment with MALME-3M melanoma it was 54 µM; in the experiment on 786-0 renal, above 100 µM.

Turning to `C#Cc1nc2ccccc2c(=O)[nH]1`, the GI50 was 0.674 µM in the experiment on PC-3 prostate; 1.14 µM in the experiment with HOP-92 NSCLC; 1.8 µM with SNB-75 CNS; 1.38 µM in the experiment on OVCAR-4 ovarian; 0.282 µM in the experiment on MCF7 breast; 3.72 µM with SF-295 CNS. The values for the GI50 with BT-549 breast, in the experiment with MALME-3M melanoma and with 786-0 renal were 0.222 µM, 1.23 µM and 0.582 µM, respectively. Also, the TGI with PC-3 prostate amounted to 2.54 µM; in the experiment on HOP-92 NSCLC, 2.61 µM; with SNB-75 CNS, 5.16 µM; in the experiment on OVCAR-4 ovarian, 2.79 µM; with MCF7 breast, 2.75 µM; in the experiment on SF-295 CNS, 20.2 µM. In addition, the TGI was 0.422 µM in the experiment on BT-549 breast, 3.04 µM in the experiment on MALME-3M melanoma and 2.12 µM with 786-0 renal.
